Values after ≈ are worked out from the molar mass of the structure shown.
What was measured:
Type in all cases: cell-based
[1] = system: E. faecalis ATCC 51299 (Ef99); assay: MIC, microdilution (CLSI); conditions: Enterococcus faecalis, ATCC 51299 / VRE; Ef99, vancomycin-resistant (VRE) E. faecalis ATCC 51299; n = 3; read-out: MIC
Description: (§1) Compounds were dissolved in dimethyl sulfoxide (DMSO) to achieve a starting concentration of 32 µg/mL as described by us previously. Compounds were further diluted two-fold across the 96-well honeycomb plate columns in cation adjusted Mueller Hinton broth (CAMHB), and bacterial culture was added. Plates were incubated for 18–20 h at 35 ℃ before determining the minimum concentrations at which wells had no visible turbidity to the naked eye. The MIC values were determined from at least a duplicate result obtained from three independent experiments using fresh bacterial cultures on different days.

[2] = system: S. aureus BAA-2312 (Sa12); assay: MIC, microdilution (CLSI); conditions: Staphylococcus aureus, BAA2312; Sa12, methicillin-resistant S. aureus BAA-2312; n = 3; read-out: MIC
Description: as §1

[3] = system: Bacillus subtilis ATCC 6623 (Bs); assay: MIC, microdilution (CLSI); conditions: ATCC6623; Bs, Bacillus subtilis ATCC 6623; n = 3; read-out: MIC
Description: as §1

[4] = system: S. aureus ATCC 33591 (Sa91); assay: MIC, microdilution (CLSI); conditions: Staphylococcus aureus, ATCC33591; Sa91, methicillin-resistant S. aureus ATCC 33591; n = 3; read-out: MIC
Description: as §1

[5] = system: S. epidermidis ATCC 700296 (Se); assay: MIC, microdilution (CLSI); conditions: Staphylococcus epidermidis, ATCC700296; Se, S. epidermidis ATCC 700296; n = 3; read-out: MIC
Description: as §1

[6] = system: E. faecalis ATCC 29212 (Ef12); assay: MIC, microdilution (CLSI); conditions: Enterococcus faecalis, ATCC29212; Ef12, antibiotic susceptible E. faecalis ATCC 29212; n = 3; read-out: MIC
Description: as §1

[7] = system: E. faecium ATCC 700221 (Ef21); assay: MIC, microdilution (CLSI); conditions: Enterococcus faecium, ATCC 700221 / VRE; Ef21, vancomycin-resistant (VRE) E. faecium ATCC 700221; n = 3; read-out: MIC
Description: as §1

[8] = system: S. aureus ATCC 33592 (Sa92); assay: MIC, microdilution (CLSI); conditions: Staphylococcus aureus, ATCC33592; Sa92, methicillin-resistant S. aureus ATCC 33592; n = 3; read-out: MIC
Description: as §1

[9] = system: S. aureus ATCC 25923 (Sa23); assay: MIC, microdilution (CLSI); conditions: Staphylococcus aureus, ATCC25923; Sa23, antibiotic susceptible S. aureus ATCC 25923; n = 3; read-out: MIC
Description: as §1

[10] = system: S. aureus ATCC 700699 (Sa99); assay: MIC, microdilution (CLSI); conditions: Staphylococcus aureus, ATCC700699; Sa99, methicillin-resistant S. aureus ATCC 700699; n = 3; read-out: MIC
Description: as §1

Gram-positive bacteria = assay: MIC across the tested strains; conditions: for MIC: across the tested strains
Description: as §1

| MIC [1] [µg/mL] | MIC [2] [µg/mL] | MIC [3] [µg/mL] | MIC [4] [µg/mL] | MIC [5] [µg/mL] | MIC [6] [µg/mL] | MIC [7] [µg/mL] | MIC [8] [µg/mL] | MIC [9] [µg/mL] | MIC [10] [µg/mL] | Compound | antibacterial activity (Gram-positive bacteria; tested bacteria) | MIC (Gram-positive bacteria) [µg/mL] |
| --- | --- | --- | --- | --- | --- | --- | --- | --- | --- | --- | --- | --- |
| 2 (≈ 3.47 µM) | 1 (≈ 1.74 µM) | 1 (≈ 1.74 µM) | 1 (≈ 1.74 µM) | 2 (≈ 3.47 µM) | 2 (≈ 3.47 µM) | 1 (≈ 1.74 µM) | 1 (≈ 1.74 µM) | 1 (≈ 1.74 µM) | 2 (≈ 3.47 µM) | O=C(O)c1ccc(-n2cc(CNc3ccc(F)c(Cl)c3F)c(-c3cc(C(F)(F)F)cc(C(F)(F)F)c3)n2)cc1 [Compound 27, 4-[3-[3,5-Bis(trifluoromethyl)phenyl]-4-[(3-chloro-2,4-difluoro-anilino)methyl]pyraz-ol-1-yl] benzoic acid] |  |  |
| 2 (≈ 3.07 µM) | 2 (≈ 3.07 µM) | 1 (≈ 1.53 µM) | 1 (≈ 1.53 µM) | 4 (≈ 6.13 µM) | 2 (≈ 3.07 µM) | 2 (≈ 3.07 µM) | 1 (≈ 1.53 µM) | 1 (≈ 1.53 µM) | 2 (≈ 3.07 µM) | O=C(O)c1ccc(-n2cc(CNc3ccc(Br)c(C(F)(F)F)c3)c(-c3cc(C(F)(F)F)cc(C(F)(F)F)c3)n2)cc1 [Compound 23, 4-[3-[3,5-Bis(trifluoromethyl)phenyl]-4-[[4-bromo-3-(trifluoromethyl)anilino]methyl]pyrazol-1-yl] benzoic acid] |  |  |
| 2 (≈ 3.59 µM) | 1 (≈ 1.79 µM) | 1 (≈ 1.79 µM) | 1 (≈ 1.79 µM) | 2 (≈ 3.59 µM) | 2 (≈ 3.59 µM) | 1 (≈ 1.79 µM) | 1 (≈ 1.79 µM) | 2 (≈ 3.59 µM) | 2 (≈ 3.59 µM) | O=C(O)c1ccc(-n2cc(CNc3ccc(F)c(Cl)c3)c(-c3cc(C(F)(F)F)cc(C(F)(F)F)c3)n2)cc1 [Compound 18, 4-[3-[3,5-Bis(trifluoromethyl)phenyl]-4-[(3-chloro-4-fluoro-anilino)methyl]pyrazol-1-yl] benzoic acid] |  |  |
| 2 (≈ 3.28 µM) | 2 (≈ 3.28 µM) | 1 (≈ 1.64 µM) | 1 (≈ 1.64 µM) | 2 (≈ 3.28 µM) | 2 (≈ 3.28 µM) | 1 (≈ 1.64 µM) | 1 (≈ 1.64 µM) | 1 (≈ 1.64 µM) | 2 (≈ 3.28 µM) | O=C(O)c1ccc(-n2cc(CNc3cc(Cl)c(F)c(Cl)c3F)c(-c3cc(C(F)(F)F)cc(C(F)(F)F)c3)n2)cc1 [Compound 30, 4-[3-[3,5-Bis(trifluoromethyl)phenyl]-4-[(3,5-dichloro-2,4-difluoro-anilino)methyl]pyrazol-1-yl] benzoic acid] |  |  |
| 16 (≈ 29.9 µM) | 4 (≈ 7.47 µM) | 4 (≈ 7.47 µM) | 8 (≈ 14.9 µM) | 16 (≈ 29.9 µM) | 16 (≈ 29.9 µM) | 8 (≈ 14.9 µM) | 8 (≈ 14.9 µM) | 8 (≈ 14.9 µM) | 8 (≈ 14.9 µM) | COc1ccc(NCc2cn(-c3ccc(C(=O)O)cc3)nc2-c2cc(C(F)(F)F)cc(C(F)(F)F)c2)cc1 [Compound 4, 4-[3-[3,5-Bis(trifluoromethyl)phenyl]-4-[(4-methoxyanilino)methyl]pyrazol-1-yl] benzoic acid] |  |  |
| 2 (≈ 3.58 µM) | 1 (≈ 1.79 µM) | 1 (≈ 1.79 µM) | 1 (≈ 1.79 µM) | 4 (≈ 7.15 µM) | 2 (≈ 3.58 µM) | 1 (≈ 1.79 µM) | 1 (≈ 1.79 µM) | 2 (≈ 3.58 µM) | 2 (≈ 3.58 µM) | O=C(O)c1ccc(-n2cc(CNc3ccc(F)c(F)c3F)c(-c3cc(C(F)(F)F)cc(C(F)(F)F)c3)n2)cc1 [Compound 24, 4-[3-[3,5-Bis(trifluoromethyl)phenyl]-4-[(2,3,4-trifluoroanilino)methyl]pyrazol-1-yl] benzoic acid] |  |  |
| 4 (≈ 7.64 µM) | 2 (≈ 3.82 µM) | 2 (≈ 3.82 µM) | 4 (≈ 7.64 µM) | 4 (≈ 7.64 µM) | 8 (≈ 15.3 µM) | 4 (≈ 7.64 µM) | 2 (≈ 3.82 µM) | 4 (≈ 7.64 µM) | 4 (≈ 7.64 µM) | O=C(O)c1ccc(-n2cc(CNc3cccc(F)c3)c(-c3cc(C(F)(F)F)cc(C(F)(F)F)c3)n2)cc1 [Compound 7, 4-[3-[3,5-Bis(trifluoromethyl)phenyl]-4-[(3-fluoroanilino)methyl]pyrazol-1-yl] benzoic acid] |  |  |
| 4 (≈ 7.64 µM) | 2 (≈ 3.82 µM) | 1 (≈ 1.91 µM) | 2 (≈ 3.82 µM) | 4 (≈ 7.64 µM) | 4 (≈ 7.64 µM) | 4 (≈ 7.64 µM) | 2 (≈ 3.82 µM) | 2 (≈ 3.82 µM) | 4 (≈ 7.64 µM) | O=C(O)c1ccc(-n2cc(CNc3ccc(F)cc3)c(-c3cc(C(F)(F)F)cc(C(F)(F)F)c3)n2)cc1 [Compound 8, 4-[3-[3,5-Bis(trifluoromethyl)phenyl]-4-[(4-fluoroanilino)methyl]pyrazol-1-yl] benzoic acid] |  |  |
| 2 (≈ 3.7 µM) | 1 (≈ 1.85 µM) | 1 (≈ 1.85 µM) | 2 (≈ 3.7 µM) | 2 (≈ 3.7 µM) | 2 (≈ 3.7 µM) | 2 (≈ 3.7 µM) | 1 (≈ 1.85 µM) | 2 (≈ 3.7 µM) | 2 (≈ 3.7 µM) | O=C(O)c1ccc(-n2cc(CNc3ccc(Cl)cc3)c(-c3cc(C(F)(F)F)cc(C(F)(F)F)c3)n2)cc1 [Compound 9, 4-[3-[3,5-Bis(trifluoromethyl)phenyl]-4-[(4-chloroanilino)methyl]pyrazol-1-yl] benzoic acid] |  |  |
| 0.5 (≈ 0.89 µM) | 1 (≈ 1.78 µM) | 2 (≈ 3.56 µM) | 1 (≈ 1.78 µM) | 1 (≈ 1.78 µM) | 1 (≈ 1.78 µM) | 2 (≈ 3.56 µM) | 2 (≈ 3.56 µM) | 1 (≈ 1.78 µM) | 2 (≈ 3.56 µM) | CC(C)(C)c1ccc(NCc2cn(-c3ccc(C(=O)O)cc3)nc2-c2cc(C(F)(F)F)cc(C(F)(F)F)c2)cc1 [Compound 3, 4-[3-[3,5-Bis(trifluoromethyl)phenyl]-4-[(4-tert-butylanilino)methyl]pyrazol-1-yl] benzoic acid] |  |  |
| 2 (≈ 3.42 µM) | 2 (≈ 3.42 µM) | 2 (≈ 3.42 µM) | 2 (≈ 3.42 µM) | 4 (≈ 6.85 µM) | 4 (≈ 6.85 µM) | 4 (≈ 6.85 µM) | 2 (≈ 3.42 µM) | 2 (≈ 3.42 µM) | 2 (≈ 3.42 µM) | O=C(O)c1ccc(-n2cc(CNc3cccc(Br)c3)c(-c3cc(C(F)(F)F)cc(C(F)(F)F)c3)n2)cc1 [Compound 10, 4-[3-[3,5-Bis(trifluoromethyl)phenyl]-4-[(3-bromoanilino)methyl]pyrazol-1-yl] benzoic acid] |  |  |
| 4 (≈ 7.15 µM) | 2 (≈ 3.58 µM) | 1 (≈ 1.79 µM) | 2 (≈ 3.58 µM) | 4 (≈ 7.15 µM) | 4 (≈ 7.15 µM) | 2 (≈ 3.58 µM) | 2 (≈ 3.58 µM) | 4 (≈ 7.15 µM) | 4 (≈ 7.15 µM) | O=C(O)c1ccc(-n2cc(CNc3cc(F)c(F)c(F)c3)c(-c3cc(C(F)(F)F)cc(C(F)(F)F)c3)n2)cc1 [Compound 25, 4-[3-[3,5-Bis(trifluoromethyl)phenyl]-4-[(3,4,5-trifluoroanilino)methyl]pyrazol-1-yl] benzoic acid] |  |  |

| Compound | MIC [1] [µg/mL] | MIC [2] [µg/mL] | MIC [3] [µg/mL] | MIC [4] [µg/mL] | MIC [5] [µg/mL] | MIC [6] [µg/mL] | MIC [7] [µg/mL] | MIC [8] [µg/mL] | MIC [9] [µg/mL] | MIC [10] [µg/mL] | antibacterial activity (Gram-positive bacteria; tested bacteria) | MIC (Gram-positive bacteria) [µg/mL] |
| --- | --- | --- | --- | --- | --- | --- | --- | --- | --- | --- | --- | --- |
| O=C(O)c1ccc(NCc2cn(-c3ccc(C(=O)O)cc3)nc2-c2cc(C(F)(F)F)cc(C(F)(F)F)c2)cc1 [Compound 13, 4-[[3-[3,5-Bis(trifluoromethyl)phenyl]-1-(4-carboxyphenyl)pyrazol-4-yl]methylamino] benzoic acid] | > 32 | 32 (≈ 58.2 µM) | > 32 | > 32 | > 32 | > 32 | > 32 | > 32 | > 32 | > 32 | eliminated the activity |  |
| Cc1cc(NCc2cn(-c3ccc(C(=O)O)cc3)nc2-c2cc(C(F)(F)F)cc(C(F)(F)F)c2)ccc1Br [Compound 16, 4-[3-[3,5-Bis(trifluoromethyl)phenyl]-4-[(4-bromo-3-methyl-anilino)methyl]pyrazol-1-yl] benzoic acid] | 2 (≈ 3.34 µM) | 1 (≈ 1.67 µM) | 1 (≈ 1.67 µM) | 1 (≈ 1.67 µM) | 2 (≈ 3.34 µM) | 1 (≈ 1.67 µM) | 1 (≈ 1.67 µM) | 1 (≈ 1.67 µM) | 1 (≈ 1.67 µM) | 2 (≈ 3.34 µM) |  | ≥ 1 |
| O=C(O)c1ccc(-n2cc(CNc3ccccc3)c(-c3cc(C(F)(F)F)cc(C(F)(F)F)c3)n2)cc1 [Compound 1, 4-[4-(Anilinomethyl)-3-[3,5-bis(trifluoromethyl)phenyl]pyrazol-1-yl] benzoic acid] | 4 (≈ 7.91 µM) | 2 (≈ 3.96 µM) | 2 (≈ 3.96 µM) | 4 (≈ 7.91 µM) | 8 (≈ 15.8 µM) | 8 (≈ 15.8 µM) | 4 (≈ 7.91 µM) | 4 (≈ 7.91 µM) | 4 (≈ 7.91 µM) | 4 (≈ 7.91 µM) |  | ≥ 2 |

Reference: paper PMC8398255, “Synthesis of 3,5-Bis(trifluoromethyl)phenyl-Substituted Pyrazole Derivatives as Potent Growth Inhibitors of Drug-Resistant Bacteria” (Molecules, 2021)
